Several values for one entry are separate records, joined by “and”; a condition that tells them apart may be missing. Equal entries are not always repeated. Where two headings read alike, the source gives them in different places.
How the values were obtained:
[1] = target: AChE; details: cited from earlier work; for type of inhibition of AChE: native triterpenic acids
[2] = target: butyrylcholinesterase (BChE); details: cited from earlier work; for BChE activity (in words): native triterpenic acids
[3] = target: T1, Acetylcholinesterase from Electrophorus electricus (electric eel) (Electrophorus electricus, UniProt O42275); experiment: In vitro AChE inhibition assay (modified Ellman's method); format: biochemical; details: for IC50: IC50 against AChE enzyme, triplicate; for IC50 / AChE inhibitory activity (in words): electric eel AChE, Ellman's assay; for times more active than 3-oxo-analog: indole derivative vs its 3-oxo amide
T1 construct: purchased Sigma-Aldrich C2888
Description: Acetylcholinesterase from Electrophorus electricus (electric eel) (AChE, Sigma C2888), sodium phosphate buffer (PBS) 0.1 M pH 7.4, acetylthiocholine iodide (ACT, Sigma A5751), and 5,5′-dithiobis-(2-nitrobenzoic acid) (DTNB, Sigma D8130) were purchased from Sigma-Aldrich (St. Louis, MO, USA). In vitro anti-AChE activity was performed based on the modified Ellman’s method. […] The IC50 values were determined graphically from inhibition curves (log inhibitor concentration vs. percent of inhibition). All experiments were performed in triplicate. Donepezil was used as a positive control

[4] = target: T2, recombinant human acetylcholinesterase (hAChE) (Homo sapiens, UniProt P22303); experiment: In vitro inhibition of recombinant human AChE (Ellman's method), IC50; format: biochemical; details: 1 mM ATC, pH 8.0, 25 °C, read-out: IC50 against hAChE enzyme
T2 construct: purchased Sigma-Aldrich
Description: Acetylthiocholine iodide (ATC), recombinant human acetylcholinesterase (hAChE), and 5,5′-dithio-bis-(2-nitrobenzoic) acid (DTNB) were purchased from Sigma-Aldrich (Sigma-Aldrich). Dimethyl sulfoxide (DMSO) was purchased from PanReac AppliChem GmbH (Darmstadt, Germany). All other chemicals were of biochemical grade. All assays were performed at 25 °C using a UV-1800 Shimadzu (Kyoto, Japan) spectrophotometer at 412 nm. The inhibitory potency of compounds against hAChE was studied using Ellman’s method. Stock solutions of compounds (0.01 M) were prepared using DMSO. The final concentration of DMSO in the cuvette was less than 0.05% vol. The inhibitory effect against AChE of 0.05% DMSO was considered weak. To determine the IC50 (the concentration of the compound producing 50% enzyme activity inhibition), enzyme-catalyzed hydrolysis was carried out in 0.1 M phosphate buffer (pH 8.0) containing hAChE in the picomolar range, DTNB (0.1 mM final concentration), and 1 mM ATC as substrate. […] Then, absorbance change was recorded for 2 min. […] The percentage of hAChE inhibition was determined by comparison of rates of reaction of test samples relative to the control sample. […] IC50 was calculated using the Hill Equation: E/Emax=I^n/IC50n+I^n where E is the enzyme activity and [I] is the compound concentration.

[5] = target: T2, recombinant human acetylcholinesterase (hAChE); experiment: hAChE inhibition constants and inhibition type (Dixon and Cornish-Bowden plots); format: biochemical; details: for type of AChE inhibition: Dixon and Cornish-Bowden plots
Description: The inhibition constants for hAChE were determined in 0.1M sodium phosphate buffer (pH 8.0) with various ATC concentrations in the range 0.1–1 mM. The rate of hydrolysis of ATC was measured after the addition of DTNB (0.1 mM final concentration) and enzyme. The final enzyme concentration in the assays was in the picomolar range. Controls of the active enzyme with 0.05% DMSO and ATC spontaneous hydrolysis in the absence of an inhibitor were performed for each substrate concentration. The rate of substrate hydrolysis was recorded by monitoring the linear optical density change at 412 nm for 5 min. Experiments were performed in triplicate. Inhibition constants were determined from the Dixon plot and Cornish-Bowden transformation using OriginPro 8.5 software (OriginLab Corporation, Northampton, MA, USA).

[6] = tested on: human T-lymphoblastic leukemia cancer cells; details: cited from earlier work
[7] = set-up: method as in PMID 32090748; details: combination with SSRIs, patients with MDD; cited from earlier work

T2 sequence (P22303 32-614): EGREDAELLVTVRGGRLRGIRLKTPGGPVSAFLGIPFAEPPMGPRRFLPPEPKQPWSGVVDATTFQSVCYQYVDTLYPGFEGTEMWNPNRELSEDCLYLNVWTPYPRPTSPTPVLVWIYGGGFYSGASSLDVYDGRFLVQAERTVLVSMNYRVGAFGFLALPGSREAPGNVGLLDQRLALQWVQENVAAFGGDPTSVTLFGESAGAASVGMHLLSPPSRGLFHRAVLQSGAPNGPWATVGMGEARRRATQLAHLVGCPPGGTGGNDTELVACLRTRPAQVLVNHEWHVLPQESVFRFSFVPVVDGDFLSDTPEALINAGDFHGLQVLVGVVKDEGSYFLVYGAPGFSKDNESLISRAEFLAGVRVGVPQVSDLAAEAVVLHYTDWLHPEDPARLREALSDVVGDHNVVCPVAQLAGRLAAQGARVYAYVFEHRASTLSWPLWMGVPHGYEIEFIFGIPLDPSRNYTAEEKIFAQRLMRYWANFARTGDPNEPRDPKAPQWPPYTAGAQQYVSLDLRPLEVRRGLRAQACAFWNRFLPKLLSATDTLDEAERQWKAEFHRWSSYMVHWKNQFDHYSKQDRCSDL
T1 sequence (O42275 24-633): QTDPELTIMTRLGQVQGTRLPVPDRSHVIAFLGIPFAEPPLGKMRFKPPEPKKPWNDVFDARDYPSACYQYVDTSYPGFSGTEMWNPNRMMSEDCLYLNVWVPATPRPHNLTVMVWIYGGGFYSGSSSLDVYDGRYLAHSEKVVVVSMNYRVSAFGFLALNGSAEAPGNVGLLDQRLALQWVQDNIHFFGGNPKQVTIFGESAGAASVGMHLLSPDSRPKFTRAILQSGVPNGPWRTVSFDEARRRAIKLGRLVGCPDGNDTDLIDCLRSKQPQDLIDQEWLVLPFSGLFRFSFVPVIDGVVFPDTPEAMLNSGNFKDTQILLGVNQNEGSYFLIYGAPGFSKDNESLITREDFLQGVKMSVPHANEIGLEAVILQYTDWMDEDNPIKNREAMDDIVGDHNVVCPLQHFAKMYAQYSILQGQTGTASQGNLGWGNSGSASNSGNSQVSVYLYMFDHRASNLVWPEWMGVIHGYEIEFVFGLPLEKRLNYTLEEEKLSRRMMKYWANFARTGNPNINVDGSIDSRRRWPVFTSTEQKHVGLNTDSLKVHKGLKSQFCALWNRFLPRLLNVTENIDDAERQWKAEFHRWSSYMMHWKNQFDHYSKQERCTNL

Molecule: C=C(C)[C@@H]1CC[C@]2(C(=O)NCCN3CCCCC3)CC[C@]3(C)C(CCC4[C@@]5(C)CC[C@H](O)C(C)(C)C5CC[C@]43C)C12 (stereo partly drawn)
- Ki ([1]; selective inhibition of AChE): 1 µM

Molecule: CC(=O)O[C@H]1CC[C@@]2(C)C(CC[C@]3(C)C2CCC2C4[C@H](C(C)=O)CC[C@]4(C(=O)NCCN4CCCC4)CC[C@]23C)C1(C)C (stereo partly drawn)
- Ki ([2]; read-out: Ki against BChE): 0.07 µM

Molecule: C=C(C)[C@@H]1CC[C@]2(C(=O)NC3CN4CCC3CC4)CC[C@]3(C)C(CCC4[C@@]5(C)CCC(=O)C(C)(C)C5CC[C@]43C)C12 (mixture of isomers) [Compound 6, 3-oxo-lup-20-en-28-((±)-3-aminoquinuclidine) amide]
- IC50 [3]: 17 ± 1.04 µM
- AChE inhibitory activity (in words) [3]: weak activity

Molecule: CC1(C)CC[C@]2(C(=O)NC3CN4CCC3CC4)CC[C@]3(C)C(=CCC4[C@@]5(C)CCC(=O)C(C)(C)C5CC[C@]43C)C2C1 (mixture of isomers) [Compound 7, 3-oxo-olean-12-en-28-((±)-3-aminoquinuclidine) amide]
- IC50 [3]: 1.67 ± 0.05 µM

Molecule: C[C@@H]1CC[C@]2(C(=O)NC3CN4CCC3CC4)CC[C@]3(C)C(=CCC4[C@@]5(C)CCC(=O)C(C)(C)C5CC[C@]43C)C2[C@H]1C (mixture of isomers) [Compound 8, 3-oxo-urs-12-en-28-((±)-3-aminoquinuclidine) amide]
- IC50 [3]: 0.43 ± 0.02 µM
- times less active than donepezil ([3]; ratio of AChE IC50 values): 14.8 times
- IC50 [4]: 5.33 ± 1.6 µM
- type of AChE inhibition [5]: mixed-type inhibitor
- Kui (uncompetitive inhibition constant) ([5]; hAChE, ATC 0.1–1 mM, pH 8.0): 22.8 ± 1.5 µM
- Ki ([5]; hAChE, ATC 0.1–1 mM, pH 8.0, read-out: Kci (competitive inhibition constant)): 6.8 ± 0.4 µM

Molecule: CC1(C)C(=O)CC[C@@]2(C)C1CC[C@]1(C)C2CC=C2C3C[C@@](C)(C(=O)NC4CN5CCC4CC5)CC[C@]3(C)CC[C@]21C (mixture of isomers) [Compound 9, 3-oxo-11-dezoxo-olean-12-en-30-((±)-3-aminoquinuclidine) amide]
- IC50 [3]: 29 µM and 28.9 µM
- AChE inhibitory activity (in words) [3]: weak activity

Molecule: C=C(C)[C@@H]1CC[C@]2(C(=O)NC3CN4CCC3CC4)CC[C@]3(C)C(CCC4[C@@]5(C)Cc6c([nH]c7ccccc67)C(C)(C)C5CC[C@]43C)C12 (mixture of isomers) [Compound 10, [3,2b]Indolo-lup-20-en-28-((±)-3-aminoquinuclidine) amide]
- IC50 [3]: 4.77 ± 0.21 µM
- times more active than 3-oxo-analog ([3]; ratio of AChE IC50 values): 3.5 times

Molecule: CC1(C)CC[C@]2(C(=O)NC3CN4CCC3CC4)CC[C@]3(C)C(=CCC4[C@@]5(C)Cc6c([nH]c7ccccc67)C(C)(C)C5CC[C@]43C)C2C1 (mixture of isomers) [Compound 11, [3,2b]Indolo-olean-12-en-28-((±)-3-aminoquinuclidine) amide]
- IC50 [3]: 0.47 ± 0.03 µM
- AChE inhibitory activity (in words) [3]: weak activity
- times more active than 3-oxo-analog ([3]; ratio of AChE IC50 values): 3.5 times
- IC50 [4]: 8.89 ± 0.4 µM
- type of AChE inhibition [5]: uncompetitive type of inhibition
- type of AChE inhibition ([5]; listed as 2,3-indolo-oleanolic acid amide): uncompetitive-type inhibitor
- Kui (uncompetitive inhibition constant) ([5]; hAChE, ATC 0.1–1 mM, pH 8.0): 19.1 ± 5.1 µM

Molecule: C[C@@H]1CC[C@]2(C(=O)NC3CN4CCC3CC4)CC[C@]3(C)C(=CCC4[C@@]5(C)Cc6c([nH]c7ccccc67)C(C)(C)C5CC[C@]43C)C2[C@H]1C (mixture of isomers) [Compound 12, [3,2b]Indolo-urs-12-en-28-((±)-3-aminoquinuclidine) amide]
- IC50 [3]: 18 ± 1.39 µM
- AChE inhibitory activity (in words) [3]: weak activity

Molecule: CC1(C)c2[nH]c3ccccc3c2C[C@@]2(C)C1CC[C@]1(C)C2CC=C2C3C[C@@](C)(C(=O)NC4CN5CCC4CC5)CC[C@]3(C)CC[C@]21C (mixture of isomers) [Compound 13, [3,2b]Indolo-11-dezoxo-olean-12-en-30-((±)-3-aminoquinuclidine) amide]
- IC50 [3]: > 128 µM
- AChE inhibitory activity (in words) [3]: weak activity

Molecule: CC1(C)CC[C@]2(C(=O)O)CC[C@]3(C)C(=CC[C@@H]4[C@@]5(C)CC[C@H](O)C(C)(C)[C@@H]5CC[C@]43C)[C@@H]2C1 [OA, oleanolic acid]
- BChE activity (in words) [2]: inactivity
- type of inhibition of AChE [1]: competitive

Molecule: C[C@H]1[C@H](C)CC[C@]2(C(=O)O)CC[C@]3(C)C(=CC[C@@H]4[C@@]5(C)CC[C@H](O)C(C)(C)[C@@H]5CC[C@]43C)[C@H]12 [UA, ursolic acid]
- BChE activity (in words) [2]: inactivity
- type of inhibition of AChE [1]: mixed

Molecule: C[C@@H]1CC[C@@]2(OC1)O[C@H]1C[C@H]3[C@@H]4CC=C5C[C@@H](O)CC[C@]5(C)[C@H]4CC[C@]3(C)[C@H]1[C@@H]2C [diosgenin]
- cytotoxicity (in words) [6]: does not exhibit cytotoxicity

Molecule: CC1(C)[C@@H](O[C@H]2O[C@H](C(=O)O)[C@@H](O)[C@H](O)[C@H]2O[C@@H]2O[C@H](C(=O)O)[C@@H](O)[C@H](O)[C@H]2O)CC[C@]2(C)[C@H]3C(=O)C=C4[C@@H]5C[C@@](C)(C(=O)O)CC[C@]5(C)CC[C@@]4(C)[C@]3(C)CC[C@@H]12 [glycyrrhizic acid, Glycyrrhizic acid]
- clinical effect of adjunctive therapy (in words) [7]: impressively greater symptomatic improvement, better treatment response, and a faster onset of clinical effects

Molecule: N-benzyl-3-benzamidoquinuclidine
- Ki ([2]; read-out: Ki, butyrylcholinesterase inhibitory activity): 3.7 µM

Source: article PMC11721041 (Molecules, 2024)
